Results from article PMC6972948 (Scientific Reports, 2020).

Test system: A/duck/Ukraine/1/1963
Type: cell-based, avian influenza A virus

In the case of `CCC(CC)O[C@@H]1C=C(C(=O)O)C[C@H](N)[C@H]1NC(C)=O` [Oseltamivir carboxylate, oseltamivir carboxylate], the plaque formation is reported as “complete abrogation of plaque formation”, the Plaque dia. (Conc. 1 μM) is reported as 0 mm and the Plaque qty. (Conc. 1 μM) is reported as 0.
